Measured values reported in PMC3598812, “Evaluation of Anti-Hyperalgesic and Analgesic Effects of Two Benzodiazepines in Human Experimental Pain: A Randomized Placebo-Controlled Study” (PLoS ONE, 2013).
Where two headings read alike, the source gives them in different places.

Assays:
[1] = Pharmacokinetics of clobazam in plasma (LC-MS/MS); assay type: in vivo; details: human, po, 20 mg, clobazam 20 mg oral, mean (SD)
[2] = trial protocol, cited from earlier work
healthy male volunteers [3] = assay: Conditioned pain modulation (cold pressor test and pressure algometry); assay type: in vivo, human; details: difference in pressure pain detection threshold after vs before cold pressor test, mean (SD)
From the text: This method explores the endogenous modulation of nociceptive input. Under normal conditions, pain after application of a “test” nociceptive stimulus is attenuated by the application of an additional conditioning noxious stimulus to a remote body region, reflecting diffuse endogenous inhibition, [20]. In the present study, pressure pain detection threshold and cold pressure test (see below) were used as test and conditioning stimuli, respectively. An increase in pressure pain detection threshold immediately after cold pressure test was an indication of CPM.
The subjects placed their hand into a container filled with ice water. In order to maximize heterotopic stimulation, the hand contralateral to the side of pressure stimulation was used. The water was regularly mixed to maintain the temperature near to 0°C. The temperature of the water near the hand was monitored by a thermometer with a digital display (±0.1°C). The subjects were asked to keep the hand in the water until they felt an intolerable sensation of pain and were forced to remove the hand from the container, with a maximum time of 2 min.
Pressure pain detection threshold was measured again at the same time as the subject was withdrawing the hand from the water (one single measurement). CPM was measured as the difference in pressure pain detection threshold between measurements after and before the cold pressure test.

healthy male volunteers [4] = assay: Area of static hyperalgesia after intradermal capsaicin injection (512 mN von Frey hair); assay type: in vivo, human; details: for Area of static hyperalgesia: single oral dose (clobazam 20 mg, clonazepam 1 mg, tolterodine 1 mg), mean (SD)
From the text: Intradermal injection of capsaicin causes a brief stinging/burning pain at the injection site followed by development of secondary hyperalgesia, i.e. hyperalgesia detected at surrounding (not injected) skin [15], [16]. Secondary hyperalgesia after intradermal capsaicin is the result of sensitization of the central nervous system, which is one of the most relevant aspects of neuroplastic changes. This model was sensitive to the action of GABAergic compounds in animal studies.
The capsaicin solution was prepared by the Hospital Pharmacy and underwent sterile filtration into sterile septum-sealed vials. The sterile solution (1 mg/ml) was placed into sterile syringes and used for intradermal injection at room temperature. The skin temperature was measured using a digital thermometer, and was 32°C+/−1 in all subjects.
Subjects remained semi-supine during the experiment. Before capsaicin injection, the skin of the forearm was cleaned using an antiseptic wipe and allowed to air dry. The injection site was marked midway between the elbow and the wrist. Using a surgical skin marker, 4 lines were drawn through the injection site, so that they intersected the corners of a regular octagon (figure 2). These lines were marked every 0.5 cm from the center to the edges using a predefined grid. […] We determined the area of hyperalgesia by adding the areas of each triangle in which hyperalgesia was recorded.
Using a 1-ml tuberculin syringe fitted with a 27-gauge disposable needle, 100 µl capsaicin were injected […] into the skin, at the intersection of the 4 vectors previously drawn. A white skin elevation appeared during injection ensuring correct injection.
Static mechanical hyperalgesia was judged to be present when the subjects reported that applying a 512 mN von Frey Hair, 5 and 30 minutes after capsaicin injection, elicited pain with an intensity of at least 4 using a numerical rating scale (NRS, whereby 0 = no pain and 10 = worst pain). Only these subjects were included in the study. In order to document pain induction, the subject recorded pain intensity at injection and 5 minutes post-injection using a 10 cm visual analogue pain scale (VAS), whereby 0 = no pain and 10 = worst pain imaginable.
The area of secondary hyperalgesia was assessed using a calibrated 512 mN von Frey hair. The punctuated probe was moved along the 8 radial lines defined above, starting approximately 6 cm away from the site of injection, at each mark in steps of 0.5 cm. The weighted von Frey hair was placed gently on the skin and the load was applied for 2 seconds. The volunteers were asked to report when the pricking sensation changed to a pain sensation. At least 4 seconds elapsed between consecutive stimuli. This procedure was repeated for each vector. The number corresponding to the marker at which sensation changes as described above was noted and the individual numbers were used to calculate the area of hyperalgesia.
The flow of the experiment is illustrated in figure 3. After training, basal values for the pain tests were determined. The study medication was given immediately after the intradermal injection of capsaicin. Thus, basal values were recorded for all tests, except for those related to capsaicin injection. Because of the relatively short duration of hyperalgesia induced by capsaicin, the recordings of basal values before drug administration would yield a too short testing procedure.

healthy male volunteers [5] = assay: Pressure pain detection and tolerance thresholds (pressure algometer, 2nd toe); assay type: in vivo, human; details: mean (SD)
Method: Pain detection and tolerance thresholds were measured with an electronic pressure algometer (Somedic, Hörby, Sweden) applied at the center of the pulp of the 2nd toe. […] The pressure was increased from 0 at a rate of 30 kPa/s to a maximum pressure of 1200 kPa. Pain detection threshold was defined as the point at which the pressure sensation turned to pain. Pain tolerance threshold was defined as the point at which the subject felt the pain as intolerable. If the threshold was not reached at 1200 kPa, this value was considered as threshold. Three assessments were made and the mean of these 3 measurements were used for the data analysis.

healthy male volunteers [6] = assay: Psychomotor performance, digit symbol substitution test (DSST); details: for DSST-score: single oral dose (clobazam 20 mg, clonazepam 1 mg, tolterodine 1 mg), mean (SD)
Method: The psychomotor performance was assessed by the digit symbol substitution test (DSST), a subscale of the Wechsler Adult Intelligence Scale. The DSST evaluates the ability to concentrate and modifications in processing information [23]. It is a two-minute paper-and-pencil test. The subject was asked to replace digits with corresponding symbols according to a code given on the same sheet of paper. The score consists in the total number and the correct number of symbols drawn.
Pressure pain, conditioned pain modulation (CPM), intramuscular electrical pain tests, cuff algometry and DSST were performed 120 min after drug intake.
After 15 min, the whole battery of tests was performed.

healthy male volunteers [7] = assay: Cutaneous repeated (20 stimuli) electrical stimulation, VAS; assay type: in vivo, human; design: AUC of VAS during 20 cutaneous electrical stimuli: unit not given beside the values; details: mean (SD); for Maximal VAS during 20 cutaneous electrical stimuli: VAS 0-10
Method: The stimulus burst used for single stimulus was repeated for a train of 20 pulses at 2 Hz, at an intensity corresponding to the temporal summation threshold. During this 10 s stimulation, pain intensity was continuously rated by the subject with an electronic VAS, and the area under the curve (AUC) was computed. Additionally, the maximal VAS during stimulation was recorded.

[8] = subgroup (n = 8) with peak plasma level below 180 minutes and at least 200 µg/ml
[9] = baseline before medication, per drug session
[10] = single oral dose (clobazam 20 mg, clonazepam 1 mg, tolterodine 1 mg), 120 min after medication
[11] = single oral dose (clobazam 20 mg, clonazepam 1 mg, tolterodine 1 mg), after flumazenil 0.2 mg iv
[12] = single oral dose (clobazam 20 mg, clonazepam 1 mg, tolterodine 1 mg), 30 min after medication
[13] = single oral dose (clobazam 20 mg, clonazepam 1 mg, tolterodine 1 mg), 60 min after medication
[14] = single oral dose (clobazam 20 mg, clonazepam 1 mg, tolterodine 1 mg), 90 min after medication

## CN1C(=O)CC(=O)N(c2ccccc2)c2cc(Cl)ccc21 [Clobazam]
[1]; all volunteers (n = 16)
  AUC: 5460 ng·h/mL
  Cmax: 370 ng/mL
  Tmax: 2.28 h
  half-life: 19 h
[1]; [8]
  AUC: 6160 ng·h/mL
  Cmax: 470 ng/mL
  Tmax: 1.64 h
  half-life: 17.5 h
[2]; after 10 mg in healthy volunteers
  Time to maximum plasma concentration: 1.3 ± 0.2 h
[2]; after 20 mg in healthy volunteers
  Time to maximum plasma concentration: 1.6 h
[2]; general statement
  Time to maximum plasma concentration: about 2 h
[2]; drug background
  Bioavailability: 90%
  Half life (t1/2): circa 20 h
Healthy male volunteers [3]; [9]
  Conditioned pain modulation: 71 (98) kPa
Healthy male volunteers [3]; [10]
  Conditioned pain modulation: 99 (99) kPa
Healthy male volunteers [3]; [11]
  Conditioned pain modulation: 58 (67) kPa
Healthy male volunteers [4]; main analysis, pairwise multiple comparisons within each drug
  Change in the area of static hyperalgesia over time: no statistically significant increase
Healthy male volunteers [4]; 30 min after medication
  Area of static hyperalgesia: 39.7 (18.6) cm^2
Healthy male volunteers [4]; 60 min after medication
  Area of static hyperalgesia: 44.3 (17.1) cm^2
Healthy male volunteers [4]; 90 min after medication
  Area of static hyperalgesia: 43.0 (15.0) cm^2
Healthy male volunteers [4]; 120 min after medication
  Area of static hyperalgesia: 43.6 (16.5) cm^2
Healthy male volunteers [4]; after flumazenil 0.2 mg iv
  Area of static hyperalgesia: 43.8 (15.0) cm^2
Healthy male volunteers [5]; [9]
  Pressure pain detection threshold: 432 (123) kPa
Healthy male volunteers [5]; [10]
  Pressure pain detection threshold: 379 (130) kPa
Healthy male volunteers [5]; [11]
  Pressure pain detection threshold: 393 (118) kPa
Healthy male volunteers [6]; main analysis, pairwise comparison within the time-points
  DSST score compared with tolterodine at 120 min: not
Healthy male volunteers [6]; 120 min after drug administration
  DSST-score: 74.9 (14.7)
Healthy male volunteers [6]; after flumazenil 0.2 mg iv
  DSST-score: 81.1 (12.1)
Healthy male volunteers [7]; [9]
  Maximal VAS during 20 cutaneous electrical stimuli: 4.7 (1.8)
  AUC of VAS during 20 cutaneous electrical stimuli: 332 (142)
Healthy male volunteers [7]; [12]
  Maximal VAS during 20 cutaneous electrical stimuli: 4.9 (2.2)
  AUC of VAS during 20 cutaneous electrical stimuli: 338 (152)
Healthy male volunteers [7]; [13]
  Maximal VAS during 20 cutaneous electrical stimuli: 4.7 (1.9)
  AUC of VAS during 20 cutaneous electrical stimuli: 341 (167)
Healthy male volunteers [7]; [14]
  Maximal VAS during 20 cutaneous electrical stimuli: 4.3 (2.0)
  AUC of VAS during 20 cutaneous electrical stimuli: 328 (169)
Healthy male volunteers [7]; [10]
  Maximal VAS during 20 cutaneous electrical stimuli: 4.2 (1.8)
  AUC of VAS during 20 cutaneous electrical stimuli: 314 (146)
Healthy male volunteers [7]; [11]
  Maximal VAS during 20 cutaneous electrical stimuli: 4.5 (1.7)
  AUC of VAS during 20 cutaneous electrical stimuli: 339 (150)
